Results published in patent US20230002408A1, “HETEROARYLDIHYDROPYRIMIDINE DERIVATIVES AND METHODS OF TREATING HEPATITIS B INFECTIONS” (JANSSEN PHARMACEUTICA NV, priority 2019, published 2023).
Read-outs that look alike come from different tables or passages of the source.

Columns and labels:
[1] = Cytotoxicity determination in HepG2.2.15 cells (CCK-8 cell viability); type: cell-based; settings: human, 6 days treatment, CCK-8, highest concentration 100 uM
Method: (§1) HepG2.2.15 (the HepG2.2.15 cell line can be produced by transfection of the HepG2 cell line as described in Sells, Chen, and Acs 1987 (Proc. Natl. Acad. Sci. USA 84: 1005-1009), and the HepG2 cell line is available from ATCC® under number HB-8065™).
(§2) HepG2.2.15 cells were plated into 96-well plate in 2% FBS culture medium at the density of 40,000 cells/well and 5,000 cells/well for HBV inhibitory activity and cytotoxicity determination, respectively. After incubation at 37° C., 5% CO2 overnight, cells were treated with medium containing compounds for 6 days with medium and compounds refreshed after 3 days of treatment. Each compound was tested in a 1:3 serial dilutions at 8 different concentrations in triplicate. The highest concentration of the compounds was 10 uM or 1 uM for anti-HBV activity assay and 100 uM for cytotoxicity determination. Cell viability was determined by CCK-8 assay. After 6 days of compounds treatment, 20 μl CCK-8 reagents were added to each well of cytotoxicity assay plates. Cell plates were incubated at 37° C., 5% CO2 for 2.5 h. The absorbance at 450 nm wavelength and the absorbance at 630 nm wavelength as reference was measured.
(§3) EC50 and CC50 values are calculated by the GRAPHPAD PRISM software.

HBV = assay: Anti-viral assay in HepG2.2.15 cells: HBV DNA in culture medium by qPCR; type: cell-based; settings: Hepatitis B virus, HepG2.2.15, 144 h
Method: as §1, §2
The change of HBV DNA level induced by the compounds was assessed by quantitative real-time polymerase chain reaction (qPCR). Briefly, the HBV DNA in the culture medium was extracted using QlAamp 96 DNA Blood Kit according to the manual and then quantified by real-time PCR assay using the primers and probe in the table 1 below.
as §3

[2] = HepG2.2.15 cells, 6 days treatment, HBV DNA in culture medium by real-time PCR, read-out: EC50

Row | Structure (SMILES) | CC50 at 6 days [1] [nM] | EC50 (HBV; [2]) [nM] | EC50 (HBV) [nM]
1 | COC(=O)C1=C(CN2CCO[C@H]3CN(CC(C)(C)C(=O)O)C(=O)[C@H]32)NC(c2nccs2)=N[C@H]1c1cccc(F)c1Cl (single isomer, unassigned) [Compound I-21A, 3-((4aS*,7aS*)-4-4(R*)-6-(2-chloro-3-fluorophenyl)-5-(methoxycarbonyl)-2-(thiazol-2-yl)-3,6-dihydropyrimidin-4-yl)methyl)-5-oxohexahydropyrrolo[3,4-b][1,4]oxazin-6(2H)-yl)-2,2-dimethylpropanoic acid] | > 100000 | 8 | 
2 | COC(=O)C1=C(CN2CCO[C@H]3CN(C(=O)OC(C)(C)C)C[C@@H]32)NC(c2ncc(F)cc2F)=N[C@H]1c1ccc(F)cc1Cl (single isomer, unassigned) [Reference 1B, (4aS*,7aS*)-tert-butyl 4-(((R*)-6-(2-chloro-4-fluorophenyl)-2-(3,5-difluoropyridin-2-yl)-5-(methoxycarbonyl)-3,6-dihydropyrimidin-4-yl)methyl)hexahydropyrrolo[3,4-b][1,4]oxazine-6(2H)-carboxylate, reference compound] | 2500 | > 1000 | 
3 | CCOC(=O)C1=C(CN2CCO[C@@H]3CN(S(C)(=O)=O)C[C@@H]32)NC(c2nccs2)=N[C@H]1c1cccc(F)c1C (racemic) [Compound I-7F, (S)-(cis)-Ethyl 4-(3-fluoro-2-methylphenyl)-6-((6-(methylsulfonyl)hexahydropyrrolo[3,4-b][1,4]oxazin-4(4aH)-yl)methyl)-2-(thiazol-2-yl)-1,4-dihydropyrimidine-5-carboxylate] | 26400 | 8 | 
4 | COC(=O)C1=C(CN2CCO[C@H]3CN(C(=O)OC(C)(C)C)C[C@@H]32)NC(c2ncc(F)cc2F)=N[C@@H]1c1ccc(F)cc1Cl (single isomer, unassigned) [Reference 1D, (4aS*,7aS*)-tert-butyl 4-4(S*)-6-(2-chloro-4-fluorophenyl)-2-(3,5-difluoropyridin-2-yl)-5-(methoxycarbonyl)-3,6-dihydropyrimidin-4-yl)methyl)hexahydropyrrolo[3,4-b][1,4]oxazine-6(2H)-carboxylate, reference compound] | 5600 | 812 | 
5 | COC(=O)C1=C(CN2CCO[C@@H]3CN(C(=O)OC(C)(C)C)C[C@H]32)NC(c2ncc(F)cc2F)=N[C@@H]1c1ccc(F)cc1Cl (single isomer, unassigned) [Reference 1C, (4aR*,7aR*)-tert-butyl 4-4(S*)-6-(2-chloro-4-fluorophenyl)-2-(3,5-difluoropyridin-2-yl)-5-(methoxycarbonyl)-3,6-dihydropyrimidin-4-yl)methyl)hexahydropyrrolo[3,4-b][1,4]oxazine-6(2H)-carboxylate, reference compound] | 3700 | 677 | 
6 | CCOC(=O)C1=C(CN2CCO[C@@H]3CN(c4ncc(C(=O)O)s4)C[C@@H]32)NC(c2nccs2)=N[C@H]1c1cccc(F)c1C (racemic) [Compound I-8F, 2-((cis)-4-(((S)-5-(Ethoxycarbonyl)-6-(3-fluoro-2-methylphenyl)-2-(thiazol-2-yl)-3,6-dihydropyrimidin-4-yl)methyl)hexahydropyrrolo[3,4-b][1,4]oxazin-6(2H)-yl)thiazole-5-carboxylic acid] | 37600 |  | 45
7 | COC(=O)C1=C(CN2CCO[C@@H]3CN(C(=O)OC(C)(C)C)C[C@H]32)NC(c2ncc(F)cc2F)=N[C@H]1c1ccc(F)cc1Cl (single isomer, unassigned) [Reference 1A, (4aR*,7aR*)-tert-butyl 4-(((R*)-6-(2-chloro-4-fluorophenyl)-2-(3,5-difluoropyridin-2-yl)-5-(methoxycarbonyl)-3,6-dihydropyrimidin-4-yl)methyl)hexahydropyrrolo[3,4-b][1,4]oxazine-6(2H)-carboxylate, reference compound] | 14000 | > 1000 | 
8 | COC(=O)C1=C(CN2CCO[C@@H]3CN(C(=O)OC(C)(C)C)C[C@@H]32)NC(c2ncc(F)cc2F)=N[C@H]1c1ccc(F)cc1Cl (single isomer, unassigned) [Reference 1G, (4aS*,7aR*)-tert-butyl 4-(((R*)-6-(2-chloro-4-fluorophenyl)-2-(3,5-difluoropyridin-2-yl)-5-(methoxycarbonyl)-3,6-dihydropyrimidin-4-yl)methyl)hexahydropyrrolo[3,4-b][1,4]oxazine-6(2H)-carboxylate, reference compound] | 14500 | > 1000 | 
9 | CCOC(=O)C1=C(CN2CCO[C@H]3CN(CC(C)(C)C(=O)O)C[C@H]32)NC(c2nccs2)=N[C@H]1c1cccc(F)c1C (relative stereo) [Compound I-6A, 3-((4aR*,7aS*)-4-4(S)-5-(Ethoxycarbonyl)-6-(3-fluoro-2-methylphenyl)-2-(thiazol-2-yl)-3,6-dihydropyrimidin-4-yl)methyphexahydropyrrolo[3,4-b][1,4]oxazin-6(2H)-yl)-2,2-dimethylpropanoic acid] | 82400 | 18 | 
10 | CCOC(=O)C1=C(CN2CCO[C@@H]3CN(CC(C)(C)C(=O)O)CC[C@@H]32)NC(c2nccs2)=N[C@H]1c1cccc(F)c1C (single isomer, unassigned) [Compound I-11A, (S)-3-((4aR*,8aS*)-1-((5-(Ethoxycarbonyl)-6-(3-fluoro-2-methylphenyl)-2-(thiazol-2-yl)-3,6-dihydropyrimidin-4-yl)methyl)hexahydro-1H-pyrido[3,4-b][1,4]oxazin-6(7H)-yl)-2,2-dimethylpropanoic acid] | 97900 | 48 | 
11 | CCOC(=O)C1=C(CN2CCO[C@H]3CN(C(=O)CC(C)(C)C(=O)O)C[C@H]32)NC(c2nccs2)=N[C@H]1c1cccc(F)c1C (relative stereo) [Compound I-2A, 4-((4aR*,7aS*)-4-4(S)-5-(ethoxycarbonyl)-6-(3-fluoro-2-methylphenyl)-2-(thiazol-2-yl)-3,6-dihydropyrimidin-4-yl)methyl)hexahydropyrrolo[3,4-b][1,4]oxazin-6(2H)-yl)-2,2-dimethyl-4-oxobutanoic acid] | 74000 |  | 33
12 | COC(=O)C1=C(CN2CCO[C@H]3CN(CC(C)(C)C(=O)O)C(=O)[C@H]32)NC(c2nccs2)=N[C@H]1c1cccc(F)c1C (single isomer, unassigned) [Compound I-19A, 3-((4aS*,7aS*)-4-4(S*)-6-(3-fluoro-2-methylphenyl)-5-(methoxycarbonyl)-2-(thiazol-2-yl)-3,6-dihydropyrimidin-4-yl)methyl)-5-oxohexahydropyrrolo[3,4-b][1,4]oxazin-6(2H)-yl)-2,2-dimethylpropanoic acid] | 59100 | 28 | 
13 | COC(=O)C1=C(CN2CCO[C@H]3CN(CC(C)(C)C(=O)O)C[C@H]32)NC(c2nccs2)=N[C@H]1c1ccc(F)cc1Cl (single isomer, unassigned) [Compound I-15A, 3-((4aR*,7aS*)-4-((R*)-6-(2-Chloro-4-fluorophenyl)-5-(methoxycarbonyl)-2-(thiazol-2-yl)-3,6-dihydropyrimidin-4-yl)methyl)hexahydropyrrolo[3,4-b][1,4]oxazin-6(2H)-yl)-2,2-dimethylpropanoic acid] | > 100000 | 19 | 
